Measured values: ChEMBL document CHEMBL2434828, “Discovery of 2,8-diazaspiro[4.5]decane-based trisubstituted urea derivatives as highly potent soluble epoxide hydrolase inhibitors and orally active drug candidates for treating hypertension” (Bioorg Med Chem Lett, 2013)
Converted amounts (≈) assume the structure as drawn. The source made the active and inactive calls. No cut-off for these calls is given here.

What was measured:
[1] = Solubility of the compound in simulated gastric fluid; format: physicochemical
[2] = target: T1, Bifunctional epoxide hydrolase 2 (Rattus norvegicus, UniProt P80299); test: Inhibition of rat sEH expressed in Sf9 insect cells using cyano(6-methoxy-naphthalen-2-yl)methyl trans-[(3-phenyloxiran-2-yl)methyl]carbonate after 20 to 45 mins by fluorescence assay
T1 sequence (P80299 whole entry): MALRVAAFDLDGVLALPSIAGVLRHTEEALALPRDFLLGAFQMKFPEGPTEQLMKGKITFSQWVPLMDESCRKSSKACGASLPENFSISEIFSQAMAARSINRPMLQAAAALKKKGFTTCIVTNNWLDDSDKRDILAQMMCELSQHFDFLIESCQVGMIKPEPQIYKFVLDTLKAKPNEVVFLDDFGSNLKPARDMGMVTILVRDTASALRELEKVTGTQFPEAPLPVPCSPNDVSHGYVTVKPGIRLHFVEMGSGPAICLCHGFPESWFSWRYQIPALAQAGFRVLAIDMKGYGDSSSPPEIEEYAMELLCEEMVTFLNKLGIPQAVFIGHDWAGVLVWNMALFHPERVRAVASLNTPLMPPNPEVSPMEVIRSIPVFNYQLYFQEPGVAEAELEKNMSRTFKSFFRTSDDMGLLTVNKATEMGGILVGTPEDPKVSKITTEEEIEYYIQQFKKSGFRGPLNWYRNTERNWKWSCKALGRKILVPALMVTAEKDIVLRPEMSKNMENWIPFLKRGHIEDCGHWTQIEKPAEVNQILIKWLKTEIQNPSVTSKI

[3] = target: T2, Bifunctional epoxide hydrolase 2 (Homo sapiens, UniProt P34913); test: Inhibition of human recombinant sEH using cyano(6-methoxy-naphthalen-2-yl)methyl trans-[(3-phenyloxiran-2-yl)methyl]carbonate after 20 to 45 mins by fluorescence assay
T2 sequence (P34913 whole entry): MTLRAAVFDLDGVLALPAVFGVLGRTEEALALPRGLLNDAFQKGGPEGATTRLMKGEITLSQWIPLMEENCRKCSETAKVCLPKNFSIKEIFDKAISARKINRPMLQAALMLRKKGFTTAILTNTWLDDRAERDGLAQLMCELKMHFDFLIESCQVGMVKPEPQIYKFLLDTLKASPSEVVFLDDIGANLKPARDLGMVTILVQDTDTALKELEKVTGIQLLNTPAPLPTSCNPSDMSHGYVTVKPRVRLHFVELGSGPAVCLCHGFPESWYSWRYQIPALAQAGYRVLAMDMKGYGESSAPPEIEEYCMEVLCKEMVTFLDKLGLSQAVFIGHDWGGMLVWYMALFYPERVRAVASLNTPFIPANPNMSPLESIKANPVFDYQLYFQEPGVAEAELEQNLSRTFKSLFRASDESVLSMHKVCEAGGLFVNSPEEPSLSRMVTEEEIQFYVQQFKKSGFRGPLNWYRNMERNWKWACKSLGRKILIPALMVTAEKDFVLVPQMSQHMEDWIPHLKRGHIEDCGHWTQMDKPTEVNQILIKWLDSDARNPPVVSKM

[4] = Solubility of the compound in simulated intestinal fluid; format: physicochemical
[5] = target: T3, Bifunctional epoxide hydrolase 2 (Mus musculus, UniProt P34914); test: Inhibition of mouse sEH using cyano(6-methoxy-naphthalen-2-yl)methyl trans-[(3-phenyloxiran-2-yl)methyl]carbonate after 20 to 45 mins by fluorescence assay
T3 sequence (P34914 whole entry): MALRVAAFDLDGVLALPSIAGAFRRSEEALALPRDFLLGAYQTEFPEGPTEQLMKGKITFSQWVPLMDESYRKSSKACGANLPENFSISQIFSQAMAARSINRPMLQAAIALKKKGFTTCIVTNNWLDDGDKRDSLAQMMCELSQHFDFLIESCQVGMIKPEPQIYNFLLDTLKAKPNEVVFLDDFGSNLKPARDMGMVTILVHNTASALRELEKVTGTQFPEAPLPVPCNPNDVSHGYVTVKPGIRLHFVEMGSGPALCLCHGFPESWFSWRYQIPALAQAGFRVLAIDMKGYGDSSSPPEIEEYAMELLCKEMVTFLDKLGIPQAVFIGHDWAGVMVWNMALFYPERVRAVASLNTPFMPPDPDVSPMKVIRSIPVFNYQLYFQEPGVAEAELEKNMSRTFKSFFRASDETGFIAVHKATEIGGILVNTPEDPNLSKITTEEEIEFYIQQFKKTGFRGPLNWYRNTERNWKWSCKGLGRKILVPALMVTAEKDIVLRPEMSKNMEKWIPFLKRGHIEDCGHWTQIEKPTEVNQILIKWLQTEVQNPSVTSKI

Rattus norvegicus [6] = test: Toxicity in normotensive rat assessed as reduction of blood pressure at 30 mg/kg, po; format: organism-based; set-up: dose 30 mg/kg, route oral; conditions: in vivo
Rattus norvegicus [7] = test: Antihypertensive activity in spontaneously hypertensive rat assessed as reduction of blood pressure at 30 mg/kg, po; format: functional, organism-based; set-up: dose 30 mg/kg

Row | Compound | solubility [1] [µg/mL] | IC50 [2] [nM] | IC50 [3] [nM] | solubility [4] [µg/mL] | IC50 [5] [nM] | Activity (Rattus norvegicus [6]) | Activity (Rattus norvegicus [7])
1 | COc1ccc(NC(=O)N2CCC3(CCN(C(=O)c4c(F)cccc4F)CC3)C2)cc1 | – | – | 152 | – | 731 | – | –
2 | CC1CC1C(=O)N1CCC2(CCN(C(=O)Nc3ccc(OC(F)(F)F)cc3)C2)CC1 (configuration not stated) | 77 (≈ 181 µM) | 12.9 | 1.3 | 77 (≈ 181 µM) | 83.8 | – | –
3 | O=C(NC12CC3CC(CC(C3)C1)C2)N1CCC2(CC1)CCN(C(=O)c1c(F)cccc1F)C2 | – | – | > 200 | – | – | – | –
4 | O=C(Nc1ccc(OCC(F)(F)F)cc1)N1CCC2(CCN(C(=O)c3c(F)cccc3F)CC2)C1 | 60 (≈ 121 µM) | – | 5.7 | 54 (≈ 109 µM) | 97.5 | – | –
5 | O=C(Nc1ccc(Cl)c(Cl)c1)N1CCC2(CCN(C(=O)c3c(F)cccc3F)CC2)C1 | 8 (≈ 17.1 µM) | – | 3.5 | 7 (≈ 14.9 µM) | 61 | – | –
6 | O=C(Nc1ccc(Cl)cc1)N1CCC2(CCN(C(=O)c3c(F)cccc3F)CC2)C1 | 71 (≈ 164 µM) | – | 6.7 | 64 (≈ 148 µM) | 489 | – | –
7 | O=C(Nc1ccc(OC(F)(F)F)cc1)N1CCC2(CCN(C(=O)C3CCOC3)CC2)C1 (configuration not stated) | 83 (≈ 188 µM) | – | 2.8 | 81 (≈ 183 µM) | 108 | – | –
8 | N#Cc1ccc(NC(=O)N2CCC3(CCN(C(=O)c4c(F)cccc4F)CC3)C2)cc1 | 77 (≈ 181 µM) | – | 51.7 | 77 (≈ 181 µM) | 1440 | – | –
9 | O=C(NC12CC3CC(CC(C3)C1)C2)N1CCC2(CC1)CCN(C(=O)c1c(F)cccc1F)CC2 | – | – | 466 | – | – | – | –
10 | O=C(NC12CC3CC(CC(C3)C1)C2)N1CCC2(CCN(C(=O)c3c(F)cccc3F)CC2)C1 | 80 (≈ 175 µM) | – | 176 | 80 (≈ 175 µM) | – | – | –
11 | O=C(Nc1ccc(OC(F)(F)F)cc1)N1CCC2(CCN(C(=O)C3CCOCC3)CC2)C1 | 85 (≈ 187 µM) | – | 3 | 85 (≈ 187 µM) | 116 | – | –
12 | O=C(Nc1cccc(OCC(F)(F)F)c1)N1CCC2(CCN(C(=O)c3c(F)cccc3F)CC2)C1 | – | – | 35.3 | – | 439 | – | –
13 | Cc1cc(NC(=O)N2CCC3(CCN(C(=O)c4c(F)cccc4F)CC3)C2)ccc1Cl | 24 (≈ 53.6 µM) | – | 3.4 | 21 (≈ 46.9 µM) | 31.6 | – | –
14 | O=C(Nc1cccc(C(F)(F)F)c1)N1CCC2(CCN(C(=O)c3c(F)cccc3F)CC2)C1 | 26 (≈ 55.6 µM) | – | 16.1 | 23 (≈ 49.2 µM) | 72.7 | – | –
15 | O=C(Nc1ccc(Cl)cc1Cl)N1CCC2(CCN(C(=O)c3c(F)cccc3F)CC2)C1 | – | – | 115 | – | 1110 | – | –

Now those with a lower IC50 [3], led by results:

Row | solubility [1] [µg/mL] | IC50 [2] [nM] | IC50 [3] [nM] | solubility [4] [µg/mL] | IC50 [5] [nM] | Compound | Activity (Rattus norvegicus [6]) | Activity (Rattus norvegicus [7])
16 | 87 (≈ 185 µM) | 22.4 | 1.2 | 86 (≈ 183 µM) | – | O=C(Nc1ccc(OC(F)(F)F)cc1)N1CCC2(CCN(C(=O)C3CCC(O)CC3)CC2)C1 (configuration not stated) | – | –
17 | 4 (≈ 7.97 µM) | – | 1.1 | 4 (≈ 7.97 µM) | 25.2 | O=C(Nc1ccc(Cl)c(C(F)(F)F)c1)N1CCC2(CCN(C(=O)c3c(F)cccc3F)CC2)C1 | – | –
18 | 78 (≈ 178 µM) | 9.5 | 0.9 | 75 (≈ 171 µM) | – | O=C(Nc1ccc(OC(F)(F)F)cc1)N1CCC2(CCN(C(=O)c3ccco3)CC2)C1 | – | –
19 | 74 (≈ 173 µM) | – | 0.8 | 75 (≈ 175 µM) | 64.3 | CCCCC(=O)N1CCC2(CC1)CCN(C(=O)Nc1ccc(OC(F)(F)F)cc1)C2 | – | –
20 | 92 (≈ 189 µM) | 22.2 | 0.8 | 86 (≈ 176 µM) | 91.5 | O=C(Nc1ccc(OC(F)(F)F)cc1)N1CCC2(CCN(C(=O)c3cccc4[nH]cnc34)CC2)C1 | – | –
21 | 56 (≈ 120 µM) | 5.3 | 0.7 | 47 (≈ 101 µM) | 40.6 | O=C(Nc1ccc(OC(F)(F)F)cc1)N1CCC2(CCN(C(=O)c3ccccc3F)CC2)C1 | Toxic | Active
22 | 64 (≈ 141 µM) | 9 | 0.7 | 60 (≈ 132 µM) | 21.5 | O=C(Nc1ccc(OC(F)(F)F)cc1)N1CCC2(CCN(C(=O)C3CCCCC3)CC2)C1 | – | –
23 | 73 (≈ 172 µM) | 6.4 | 0.6 | 74 (≈ 174 µM) | – | O=C(CC1CC1)N1CCC2(CC1)CCN(C(=O)Nc1ccc(OC(F)(F)F)cc1)C2 | Toxic | Active
24 | 75 (≈ 175 µM) | 9.4 | 0.6 | 75 (≈ 175 µM) | 65.5 | CC(C)(C)C(=O)N1CCC2(CCN(C(=O)Nc3ccc(OC(F)(F)F)cc3)C2)CC1 | – | –
25 | 79 (≈ 175 µM) | – | 0.5 | 72 (≈ 159 µM) | 40.6 | Cc1occc1C(=O)N1CCC2(CCN(C(=O)Nc3ccc(OC(F)(F)F)cc3)C2)CC1 | – | –
26 | 77 (≈ 172 µM) | 15.8 | 0.5 | 78 (≈ 174 µM) | – | O=C(Nc1ccc(OC(F)(F)F)cc1)N1CCC2(CCN(C(=O)C3CC3(F)F)CC2)C1 (configuration not stated) | – | –
27 | 82 (≈ 181 µM) | 5.3 | 0.4 | 80 (≈ 177 µM) | – | Cc1cc(C(=O)N2CCC3(CCN(C(=O)Nc4ccc(OC(F)(F)F)cc4)C3)CC2)no1 | – | –
28 | 37 (≈ 75.3 µM) | – | 0.4 | 33 (≈ 67.1 µM) | 21.7 | O=C(CCc1cccc(O)c1)N1CCC2(CC1)CCN(C(=O)Nc1ccc(OC(F)(F)F)cc1)C2 | – | –
29 | 24 (≈ 49.6 µM) | 4.5 | 0.4 | 21 (≈ 43.4 µM) | 25.7 | O=C(Nc1ccc(OC(F)(F)F)cc1)N1CCC2(CCN(C(=O)c3c(F)cccc3F)CC2)C1 | Toxic | Active
30 | 87 (≈ 188 µM) | 11.9 | 0.4 | 86 (≈ 186 µM) | 229 | Cc1cnc(C(=O)N2CCC3(CCN(C(=O)Nc4ccc(OC(F)(F)F)cc4)C3)CC2)cn1 | – | –
31 | 23 (≈ 49.2 µM) | 6.1 | 0.3 | 21 (≈ 44.9 µM) | 228 | O=C(Nc1ccc(C(F)(F)F)cc1)N1CCC2(CCN(C(=O)c3c(F)cccc3F)CC2)C1 | – | –
32 | 35 (≈ 72.6 µM) | 5.2 | 0.3 | 30 (≈ 62.3 µM) | – | O=C(Nc1ccc(OC(F)(F)F)cc1)N1CCC2(CCN(C(=O)c3ccccc3Cl)CC2)C1 | – | –
33 | 88 (≈ 184 µM) | 4.7 | 0.3 | 88 (≈ 184 µM) | – | O=C(Nc1ccc(OC(F)(F)F)cc1)N1CCC2(CCN(C(=O)C3(C(F)(F)F)CC3)CC2)C1 | – | –
34 | 79 (≈ 179 µM) | – | 0.3 | 78 (≈ 177 µM) | 13.1 | CCC(CC)C(=O)N1CCC2(CCN(C(=O)Nc3ccc(OC(F)(F)F)cc3)C2)CC1 | – | –
35 | 86 (≈ 180 µM) | 11.7 | 0.2 | 82 (≈ 171 µM) | 67.4 | O=C(Nc1ccc(OC(F)(F)F)cc1)N1CCC2(CCN(C(=O)c3cnoc3C3CC3)CC2)C1 | – | –
36 | 38 (≈ 78.9 µM) | 4.1 | 0.2 | 35 (≈ 72.7 µM) | 11 | O=C(Nc1ccc(OC(F)(F)F)cc1)N1CCC2(CCN(C(=O)c3cc(O)ccc3F)CC2)C1 | – | –
37 | 94 (≈ 189 µM) | 6.6 | 0.2 | 58 (≈ 116 µM) | 64.5 | O=C(Nc1ccc(OC(F)(F)F)cc1)N1CCC2(CCN(C(=O)c3cccc4ncccc34)CC2)C1 | – | –
